Test results reported in PubChem BioAssay (NCI).
Several values for one entry are separate records, joined by “and”; a condition that tells them apart may be missing. Equal entries are not always repeated.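 Results reflect a 48-hour exposure of cells in 96-well plates to compound at five concentrations. Abbreviation: GI50, concentration required for 50% inhibition of growth. TGI is the concentration that stops growth completely.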

Columns and labels:
Experiment in all cases: NCI-60 cell line screen, 48 h
[1] = tested on: BT-549 breast
[2] = tested on: DLD-1 colon
[3] = tested on: LXFL 529 NSCLC
[4] = tested on: XF 498 CNS
[5] = tested on: DMS 114 small cell lung
[6] = tested on: HOP-18 NSCLC
[7] = tested on: M19-MEL melanoma
[8] = tested on: SNB-78 CNS
[9] = tested on: RXF-631 renal
[10] = tested on: MDA-N

SMILES	GI50 [1]	TGI [1]	TGI [2] [µM]	TGI [3] [µM]	TGI [4] [µM]	TGI [5] [µM]	TGI [6] [µM]	TGI [7] [µM]	TGI [8] [µM]	further results
CCOC1Oc2ccccc2C(=O)/C1=C\Nc1ccc(C(=O)O)c(O)c1 (centres undefined)	26.4 µM	87.5 µM	–	–	–	–	–	–	–	–
O=C(CO)CC(=O)C(=O)Nc1cccc(C(F)(F)F)c1	–	–	> 100	> 100	> 100	–	–	–	–	–
CC1(C)C2=CCCC(=O)[C@@]2(C)CC[C@@H]1O	–	–	> 100	> 100	> 100	> 100	> 100	> 100	> 100	–
CCCCCCCCCCCCCP(=O)(OC)OC	–	–	30.5	33.5	31.8	37	32.9	33.4	35.5	TGI [9]: 32.5 µM
O=C(O)CC(S)C(=O)O.[Li+].[Sb] (centres undefined)	> 100 µM	> 100 µM	–	–	–	–	–	–	–	GI50 [10]: > 100 µM; TGI [10]: > 100 µM
c1ccc(N2CCN(CCCN3CCc4c([nH]c5ccccc45)C3c3cccnc3)CC2)cc1 (centres undefined)	–	–	> 100	> 100	44.6	> 100	> 100	> 100	> 100	TGI [9]: 98.2 µM
COc1ccc2[nH]cc(C3(c4c[nH]c5ccc(OC)cc45)C(=O)Nc4ccc(Cl)cc43)c2c1	5.08 µM	56.8 µM	–	–	–	–	–	–	–	–
O=C(CS(=O)c1nc2ccccc2nc1-c1ccccc1)Nc1ccc(Cl)cc1 (centres undefined)	1.33 µM	53.1 µM	–	–	–	–	–	–	–	–
CC(=O)OCC1OC([S-])C(OC(C)=O)C(OC(C)=O)C1OC(C)=O.[Au+].c1ccc(CN2[CH-]N(Cc3ccccc3)C(c3ccccc3)=C2c2ccccc2)cc1	2.03 µM and 0.375 µM	4.32 µM and 2.69 µM	–	–	–	–	–	–	–	–
C=C1C(=O)O[C@H]2[C@H]1CC/C(CNC(=O)C(C)c1ccc(CC(C)C)cc1)=C\CC[C@@]1(C)O[C@@H]21 (some centres undefined)	1.8 µM	4.45 µM	–	–	–	–	–	–	–	–
COc1cc2c(cc1OC)-c1c(c3ccc([N+](=O)[O-])cc3c(=O)n1CCCN=[N+]=[N-])C2=O	> 100 µM	> 100 µM	–	–	–	–	–	–	–	–
CN(C)c1ccc2cc3c(cc2c1)Oc1ccccc1N3.[Cl][Zn][Cl]	14.4 µM	27.7 µM	–	–	–	–	–	–	–	–
CN(CCc1ccccn1)/[N+]([O-])=N/O (tested in a mixture with another compound)	–	–	> 100	> 100	–	> 100	> 100	> 100	> 100	TGI [9]: > 100 µM
CCCc1nn(C)c(CCC(=O)N(Cc2ccccc2)Cc2ccccc2)c1CC	–	–	> 100	> 100	> 100	> 100	> 100	> 100	> 100	–
CCN(CC)CCCNc1nccc2c(C)c3[nH]c4ccncc4c(=O)c3cc12	–	–	21.8	11.4	6.63	2.91	18.7	–	13.7	TGI [9]: 22 µM
CCCCCCCCC1C(C)c2c([nH]c3ccccc23)C2C(=O)N(c3ccccc3)C(=O)C21 (centres undefined)	–	–	45.2	30.1	–	23.4	–	31.9	29.8	TGI [9]: 14.2 µM

SMILES	GI50 [1]	TGI [1]	TGI [2] [µM]	TGI [3] [µM]	TGI [4] [µM]	TGI [5] [µM]	TGI [6] [µM]	TGI [7] [µM]	TGI [8] [µM]	further results
CC[C@H](C)[C@H](NC(=O)[C@H]1CCCCN1C)C(=O)N(C)[C@H](C[C@@H](OC(C)=O)c1nc(C(=O)NC23C4C5C2C2C3C4C52C(=O)OC)cs1)C(C)C (some centres undefined)	0.00344 µM and 0.0025 µM	0.0801 µM and 0.0268 µM	–	–	–	–	–	–	–	–
CSC(=NC(=O)c1ccccc1)SCCSC(=NC(=O)c1ccccc1)SC	–	–	> 100	> 100	> 100	> 100	–	> 100	> 100	TGI [9]: > 100 µM
C#Cc1cccc(Nc2ncnc3ccc(-c4cnc(N)nc4)cc23)c1	2.07 µM	9.37 µM	–	–	–	–	–	–	–	–
CC(=O)OC(C)(C)C[N+](=O)[O-]	–	–	> 100	> 100	–	> 100	–	> 100	–	–
CCCCCCCCCCCCSC1=CC(=O)C=CC1=O	1.34 µM	4.57 µM	–	–	–	–	–	–	–	–
O=C(C(=O)c1cccnc1)c1cccnc1	> 100 µM	> 100 µM	–	–	–	–	–	–	–	–
O=c1[nH][nH]c(=O)c2c(O)c(-c3ccccc3)ncc12	32.9 µM and 47.4 µM	357 µM	–	–	–	–	–	–	–	–
CC1(C)C=C(N2CCN(C3=CC(C)(C)NC(C)(C)C3)CC2)CC(C)(C)N1	–	–	> 100	> 100	> 100	> 100	> 100	> 100	> 100	–
CCN(CC)CCOc1ccc(NC(=O)C(C(C)C)N2C(=O)/C(=C/c3ccc(Br)cc3)SC2=S)cc1 (centres undefined)	14.4 µM	28.5 µM	–	–	–	–	–	–	–	–
COC1/C=C/OC2(C)Oc3c(C)c(O)c4c(O)c(c(/C=N/N(c5ccccc5)c5ccccc5)c(O)c4c3C2=O)NC(=O)C(C)=C/C=C/C(C)C(O)C(C)C(O)C(C)C(OC(C)=O)C1C (centres undefined)	2.5 µM	8.83 µM	–	–	–	–	–	–	–	–
Cc1ccc(-c2nc3ccccc3c(=O)n2NC2OC(CO)C(O)C(O)C2O)cc1 (centres undefined)	–	–	–	> 100	> 100	> 100	> 100	> 100	> 100	TGI [9]: > 100 µM
CC(=O)CCn1[nH]c(=O)c(Cl)c(Cl)c1=O	–	–	> 100	> 100	> 100	> 100	> 100	> 100	> 100	–
O=C(CC1(O)C(=O)Nc2c(Cl)cc(Cl)cc21)c1ccc([N+](=O)[O-])cc1 (centres undefined)	–	–	> 66	> 51.5	> 100	53.1	> 100	22	> 78.9	–
Cl.[O-]c1cccc2cccnc12.[O-]c1cccc2cccnc12.[O-]c1cccc2cccnc12.[O-]c1cccc2cccnc12.[Ti+4]	–	> 100 µM	1.6	–	–	0.365	> 100	–	–	–
O=C(O)C1C2C=CC(O2)C1C(=O)NCc1ccncc1 (centres undefined)	–	–	–	–	–	–	–	–	–	TGI [10]: > 100 µM
